Measured values reported in ChEMBL document CHEMBL1133708, “A new class of conformationally rigid analogues of 4-amino-5-halopentanoic acids, potent inactivators of gamma-aminobutyric acid aminotransferase” (J Med Chem, 2000).

Legend:
[1] = target: T1, 4-aminobutyrate aminotransferase, mitochondrial (Sus scrofa, UniProt P80147); experiment: Compound was evaluated for the kinetic constant for the inhibition of Gamma-amino-N-butyrate transaminase
[2] = target: T1, 4-aminobutyrate aminotransferase, mitochondrial; experiment: Compound was evaluated for the competitive inhibition of Gamma-amino-N-butyrate transaminase
[3] = target: 4-aminobutyrate aminotransferase, mitochondrial (Sus scrofa) (UniProt P80147); experiment: Compound was evaluated for the kinetic constant for the inactivation of Gamma-amino-N-butyrate transaminase
[4] = Selectivity ratio of Kinact/KI
[5] = target: 4-aminobutyrate aminotransferase, mitochondrial (Sus scrofa) (UniProt P80147); experiment: Compound was evaluated for the kinetic constant for the inhibition of Gamma-amino-N-butyrate transaminase; NA means no inactivation

4-aminobutyrate aminotransferase, mitochondrial (Sus scrofa), sequence (P80147 whole entry): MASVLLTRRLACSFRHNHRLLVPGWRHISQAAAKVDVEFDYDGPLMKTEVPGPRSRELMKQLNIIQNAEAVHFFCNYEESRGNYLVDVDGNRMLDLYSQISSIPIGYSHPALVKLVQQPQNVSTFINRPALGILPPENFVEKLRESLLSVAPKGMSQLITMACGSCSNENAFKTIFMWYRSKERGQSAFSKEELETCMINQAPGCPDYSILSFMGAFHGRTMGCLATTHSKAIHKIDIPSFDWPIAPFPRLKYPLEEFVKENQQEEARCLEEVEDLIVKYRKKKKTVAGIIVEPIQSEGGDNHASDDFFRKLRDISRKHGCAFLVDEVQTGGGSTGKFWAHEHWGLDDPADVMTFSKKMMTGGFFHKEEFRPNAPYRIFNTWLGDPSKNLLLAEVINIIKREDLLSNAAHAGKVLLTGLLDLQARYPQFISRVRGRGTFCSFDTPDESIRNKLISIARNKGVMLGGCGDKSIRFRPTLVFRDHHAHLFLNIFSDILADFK
T1 sequence (P80147 whole entry): as above

Row | SMILES | Ki [1] [mM] | Ki [2] [mM] | kinact [3] [min⁻¹] | K inact/Ki [4] [M⁻¹ s⁻¹] | NA [5]
1 | N[C@H]1C[C@@H](C(=O)O)C[C@@H]1F | 0.43 | 0.012 | 0.03 | 1.17 | 
2 | N[C@H]1C[C@@H](C(=O)O)C[C@@H]1Br | 16 | 3.6 | 0.02 | 0.0217 | 
3 | N[C@@H]1CC[C@H](C(=O)O)[C@H]1Br |  | 12 |  |  | No inactivation
4 | NC(CF)CCC(=O)O (configuration not stated) | 0.4 |  | 0.5 |  | 
5 | N[C@H]1[C@@H](F)[C@@H](C(=O)O)C[C@@H]1Br | 3.14 | 1.6 | 0.023 | 0.122 | 
6 | N[C@H]1[C@H](Br)[C@@H](C(=O)O)C[C@@H]1Br | 49 | 4.2 | 0.18 | 0.0617 | 
7 | N[C@H]1[C@H](Br)[C@@H](C(=O)O)C[C@@H]1O |  | 13 |  |  | No inactivation
8 | N[C@H]1[C@H](O)[C@@H](C(=O)O)C[C@@H]1Br |  | 5.9 |  |  | No inactivation
9 | N[C@H]1[C@H](Br)[C@@H](C(=O)O)C[C@@H]1F |  | 4.7 |  |  | No inactivation
10 | N[C@H]1C[C@@H](C(=O)O)CC1(F)F |  |  |  |  | No inactivation
